Structures are written as SMILES. Bounds are passed on as bounds.

T1 sequence (Q9Y5Y9 whole entry): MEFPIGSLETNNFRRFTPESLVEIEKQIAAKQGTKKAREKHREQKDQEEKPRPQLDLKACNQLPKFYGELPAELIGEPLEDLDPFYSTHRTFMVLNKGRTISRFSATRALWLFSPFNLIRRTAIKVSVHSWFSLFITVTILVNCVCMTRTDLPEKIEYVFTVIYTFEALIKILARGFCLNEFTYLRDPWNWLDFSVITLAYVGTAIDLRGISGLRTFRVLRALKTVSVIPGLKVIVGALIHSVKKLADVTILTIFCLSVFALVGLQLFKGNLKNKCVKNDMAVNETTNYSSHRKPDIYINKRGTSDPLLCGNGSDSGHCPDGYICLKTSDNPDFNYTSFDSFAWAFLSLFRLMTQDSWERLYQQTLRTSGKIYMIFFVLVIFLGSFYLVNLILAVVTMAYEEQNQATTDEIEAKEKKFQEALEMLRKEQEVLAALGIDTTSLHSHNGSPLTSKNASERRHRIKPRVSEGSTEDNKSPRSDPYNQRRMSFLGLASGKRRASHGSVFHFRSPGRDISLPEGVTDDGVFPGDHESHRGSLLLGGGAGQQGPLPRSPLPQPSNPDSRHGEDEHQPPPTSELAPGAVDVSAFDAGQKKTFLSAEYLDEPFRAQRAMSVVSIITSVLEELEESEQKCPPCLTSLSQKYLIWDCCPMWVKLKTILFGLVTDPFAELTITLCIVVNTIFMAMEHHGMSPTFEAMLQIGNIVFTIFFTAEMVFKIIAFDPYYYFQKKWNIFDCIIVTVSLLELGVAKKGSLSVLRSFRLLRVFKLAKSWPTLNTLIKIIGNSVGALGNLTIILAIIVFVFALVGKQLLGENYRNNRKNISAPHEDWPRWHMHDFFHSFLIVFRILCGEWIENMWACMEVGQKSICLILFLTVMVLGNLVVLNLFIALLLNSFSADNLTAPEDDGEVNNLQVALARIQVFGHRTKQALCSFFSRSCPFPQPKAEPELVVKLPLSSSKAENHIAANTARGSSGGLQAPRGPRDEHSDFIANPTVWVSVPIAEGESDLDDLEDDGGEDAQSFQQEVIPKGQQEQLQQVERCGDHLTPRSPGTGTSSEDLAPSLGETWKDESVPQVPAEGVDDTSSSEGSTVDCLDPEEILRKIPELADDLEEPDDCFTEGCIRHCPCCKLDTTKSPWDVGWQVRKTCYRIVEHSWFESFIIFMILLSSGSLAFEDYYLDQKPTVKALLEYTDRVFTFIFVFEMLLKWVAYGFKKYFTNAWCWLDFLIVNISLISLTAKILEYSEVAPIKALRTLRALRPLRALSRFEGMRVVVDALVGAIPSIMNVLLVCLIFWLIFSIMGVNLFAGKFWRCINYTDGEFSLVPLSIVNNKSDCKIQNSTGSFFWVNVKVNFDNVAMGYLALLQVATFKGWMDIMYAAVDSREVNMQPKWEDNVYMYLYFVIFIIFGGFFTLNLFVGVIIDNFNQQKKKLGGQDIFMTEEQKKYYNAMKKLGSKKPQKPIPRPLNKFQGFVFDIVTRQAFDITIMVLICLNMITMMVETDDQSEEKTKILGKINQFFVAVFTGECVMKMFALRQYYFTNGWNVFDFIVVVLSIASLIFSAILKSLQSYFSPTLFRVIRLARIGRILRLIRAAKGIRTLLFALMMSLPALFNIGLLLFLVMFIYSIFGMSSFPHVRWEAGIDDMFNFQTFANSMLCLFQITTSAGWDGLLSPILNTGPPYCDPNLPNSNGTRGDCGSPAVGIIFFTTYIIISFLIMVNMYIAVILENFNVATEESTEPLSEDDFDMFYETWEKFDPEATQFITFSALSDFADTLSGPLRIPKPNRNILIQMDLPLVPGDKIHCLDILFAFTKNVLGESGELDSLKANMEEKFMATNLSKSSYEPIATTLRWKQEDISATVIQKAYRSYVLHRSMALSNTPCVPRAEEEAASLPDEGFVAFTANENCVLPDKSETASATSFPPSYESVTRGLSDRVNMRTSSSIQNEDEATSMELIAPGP

This experiment addresses T1, human NaV1.8 (Homo sapiens, UniProt Q9Y5Y9).
T1 construct: expressed in transfected cells; host or cells: HEK
Nature of the experiment: Electrophysiology: voltage-clamp recordings, whole-cell patch clamp on Qube384 automated platform. The experiment is classed as cell-based. The settings on record: HEK-NaV1.8 (NM 006514.1) with b3 recombinant cell line, multi hole plates, ambient room temperature, read-out: Potency category (human NaV1.8 IC50). As for the experimental part: Electrophysiology: Voltage-Clamp recordings
The following NaV1.8 recombinant cell line was used for recordings: HEK-NaV1.8 (NM 006514.1) with b3 (NM_018400.3).
Sodium currents were measured using the patch clamp technique in the whole-cell configuration using the Qube384 (Sophion A/S, Copenhagen, Denmark) automated voltage clamp platform. "Multi hole" plates were used for the cell line expressing NaV1.8 while "single hole" plates were used for the recombinant cell lines expressing the other subtypes. Appropriate filters (for minimum seal resistance and minimum current size) and series resistance compensation (for high quality sodium channel recordings) were applied. Data was collected at ambient room temperature.
The recording […] solution contained (in mM): NaCl 145 mM, KCl 4 mM, CaCl2 2 mM, MgCl2 1 mM, HEPES 10 mM, Glucose 10 mM, pH 7.4 (NaOH). The […] recording solution contained (in mM): CsF 120 mM, CsCl 20 mM, NaCl 10 mM, EGTA 10 mM, HEPES 10 mM, pH 7.2 (CsOH). Currents were recorded at 25 kHz sampling frequency and filtered at 5 kHz. Series resistance compensation was applied at 65%.
Vehicle (VEH) is the control condition where cells are exposed to 0.3 % DMSO without compound. All runs include VEH controls being exposed to the same voltage protocols to assess non-compound related phenomena such as run down and then used to isolate compound dependent effects on currents.
To check for state-dependence inhibition, the following voltage-sequence was applied every 20 seconds: From a resting membrane potential of-120 mV, the first test pulse (P1; 20 ms to -10 mV) was applied to check for channels in the Resting State followed by a brief recovery (20 ms to -120 mV), then holding the membrane voltage to V1/2 (4 seconds at voltage to obtain half the channel at Rest and half Inactivated) with a subsequent second test pulse (P2; 20 ms to -10 mV) to check for channels in the Inactivated State, followed by another brief recovery (20 ms to -120 mV) and a final third test pulse (P3; 20 ms to -10 mV) to check for recovered channels.
To check for frequency-dependent inhibition, a 10 Hz protocol and a 20 Hz protocol were applied; namely,
From a resting membrane potential of -120 mV, 40-pulses (10 ms to -10 mV) was applied at 10 Hz (at 100 ms between pulses) and then at 20 Hz (at 50 ms between pulses). Each parameter was recorded (P1, P2, P3, P40 from 10Hz and P40 from 20Hz) during a control period (lasting ~ 5 minutes) when establishing the baseline and during compound period (lasting ~ 12 minutes) when test compound (or vehicle) was applied. For each parameter, the value at the end of the compound period was normalized to the vehicle baseline; as follows Normalized Inhibition (NormCPD) = (CPD Valueend CPD period)/(VEH Valueend Control Period) [formula]
To adjust for any variance in the Na^+ current signal during the compound period (owing to cumulative inactivation independent of compound or shifts in biophysics over time), a dedicated segment of the recording wells in each 384 plate were dedicated to having only vehicle exposure. These vehicle-only recordings were used to correct for any apparent "run-up" or "run-down" in the experiment. Normalized Inhibition (NormVEH) = (VEH Valueend CPD period)/(VEH Valueend Control Period) [formula]
The adjusted inhibition was calculated as follows: % Inhibitioncorrected = 100 × (NormCPD −NormVEH)/(100−NormVEH) [formula]
Percent inhibition was determined and IC50 values were calculated using a 4 parameter logistic model within XLFit Software (IDBS, Boston MA): % Inhibitioncorrected = A + ((B−A))/((1 + (((x)/(C)))^D) [formula] where A and B are the maximal and minimum inhibition respectively, C is the IC50 concentration and D is the (Hill) slope.
On the technique in general: In patch-clamp work, channel activity is measured electrically.
Consider `CC12CC(Cn3nc(C4CC4)c(C(F)(F)F)c3C(=O)Nc3ccnc(S(C)(=O)=O)c3)(CO1)C2` [Example 23, 3-cyclopropyl-1-((1-methyl-2-oxabicyclo[2.1.1]hexan-4-yl)methyl)-N-(2-(methylsulfonyl)pyridin-4-yl)-4-(trifluoromethyl)-1H-pyrazole-5-carboxamide], for which the IC50 fell in the range of 100 to 1000 nM.

As for `CS(=O)(=O)n1cc(NC(=O)c2c(C(F)(F)F)cnn2CC23CCC(C2)C3)cn1` [Example 49, 1-(bicyclo[2.1.1]hexan-1ylmethyl)-N-(1-(methylsulfonyl)-1H-pyrazol-4-yl)-4-(trifluoromethyl)-1H-pyrazole-5-carboxamide], the IC50 was in the range of 100 to 1000 nM.

Turning to `Cc1c(C(F)(F)F)nn(CC23CC(C(F)(F)F)(C2)C3)c1C(=O)Nc1ccnc(C(N)=O)c1` [Example 8, 4-(4-methyl-3-(trifluoromethyl)-1-((3-(trifluoromethyl)bicyclo [1.1.1]pentan-1-yl)methyl)-1H-pyrazole-5-carboxamido)picolinamide], the IC50 is no more than 100 nM.

Take `CC1(C)CC(Cn2nc(C3CC3)c(C(F)(F)F)c2C(=O)Nc2ccnc(C(N)=O)c2)O1` (single isomer, unassigned) [Example 17a, 4-(3-cyclopropyl-1-((4,4-dimethyloxetan-2-yl)methyl)-4-(trifluoromethyl)-1H-pyrazole-5-carboxamido)picolinamide]: the IC50 fell in the range of 100 to 1000 nM.

Take `CC12COC(Cn3nc(C4CC4)c(C(F)(F)F)c3C(=O)Nc3ccnc(C(N)=O)c3)(C1)C2` [Example 16, 4-(3-cyclopropyl-1-((4-methyl-2-oxabicyclo[2.1.1]hexan-1-yl)methyl)-4-(trifluoromethyl)-1H-pyrazole-5-carboxamido)picolinamide]: the half-maximal inhibitory concentration (IC50) was no more than 100 nM.

In the case of `COC12CC(Cn3nc(C4CC4)c(C(F)(F)F)c3C(=O)Nc3ccnc(S(C)(=O)=O)c3)(C1)C2` [Example 20], the IC50 was 100 to 1000 nM.

For the compound `Cc1c(C(C)(F)F)nn(CC2(C)CC(F)(F)CC2C)c1C(=O)Nc1ccnc(C(N)=O)c1` (single isomer, unassigned) [Example 10c, 4-(1-((4,4-difluoro-1,2-dimethylcyclopentyl)methyl)-3-(1,1-difluoroethyl)-4-methyl-1H-pyrazole-5-carboxamido)picolinamide], the IC50 is no more than 100 nM.

In the case of `NC(=O)c1cc(NC(=O)c2c(C(F)(F)F)c(C3CC3)nn2CC23CC(CO2)C3)ccn1` [Example 3], the IC50 fell in the range of 100 to 1000 nM.

For the compound `CC12CC(Cn3ncc(C(F)(F)F)c3C(=O)Nc3cccc(S(N)(=O)=O)c3)(CO1)C2` [Example 31, 1-((1-methyl-2-oxabicyclo[2.1.1]hexan-4-yl)methyl)-N-(3-sulfamoylphenyl)-4-(trifluoromethyl)-1H-pyrazole-5-carboxamide], the IC50 lay in the range of 1000 to 10000 nM.

Regarding `NC(=O)c1cc(NC(=O)c2c(C(F)(F)F)c(C3CC3)nn2CC23CC(F)(C2)C3)ccn1` [Example 15, 4-(3-cyclopropyl-1-((3-fluorobicyclo [1.1.1]pentan-1-yl)methyl)-4-(trifluoromethyl)-1H-pyrazole-5-carboxamido)picolinamide], the IC50 was no more than 100 nM.

Consider `Cc1nn(CC23CC(CO2)C3)c(C(=O)Nc2ccc(F)c(C(N)=O)c2)c1C(F)(F)F` [Example 39, 1-((2-oxabicyclo[2.1.1]hexan-1-yl)methyl)-N-(3-carbamoyl-4-fluorophenyl)-3-methyl-4-(trifluoromethyl)-1H-pyrazole-5-carboxamide], for which the IC50 lay within 100 to 1000 nM.

`Cc1nn(CC23CC(C(F)(F)F)(C2)C3)c(C(=O)Nc2ccnc(S(C)(=O)=O)c2)c1C(F)(F)F` [Example 26, 3-methyl-N-(2-(methylsulfonyl)pyridin-4-yl)-4-(trifluoromethyl)-1-((3-(trifluoromethyl)bicyclo[1.1.1]pentan-1yl)methyl)-1H-pyrazole-5-carboxamide]: the IC50 lay within 100 to 1000 nM.

`NS(=O)(=O)c1cccc(NC(=O)c2c(C(F)(F)F)cnn2CC23CC(CO2)C3)c1` [Example 30, 1-((2-oxabicyclo[2.1.1]hexan-1-yl)methyl)-N-(3-sulfamoylphenyl)-4-(trifluoromethyl)-1H-pyrazole-5-carboxamide]: the IC50 was 1000 to 10000 nM.

In the case of `CS(=O)(=O)c1cc(NC(=O)c2c(C(F)(F)F)c(C3CC3)nn2CC23CC(CO2)C3)ccn1` [Example 24, 1-((2-oxabicyclo[2.1.1]hexan-1-yl)methyl)-3-cyclopropyl-N-(2-(methylsulfonyl)pyridin-4-yl)-4-(trifluoromethyl)-1H-pyrazole-5-carboxamide], the 50% inhibitory concentration (IC50) is 100 to 1000 nM.

As for `CS(=O)(=O)c1cc(NC(=O)c2c(C(F)(F)F)c(C3CC3)nn2CC23CC(F)(C2)C3)ccn1` [Example 21, 3-cyclopropyl-1-((3-fluorobicyclo [1.1.1]pentan-1-yl)methyl)-N-(2-(methylsulfonyl)pyridin-4-yl)-4-(trifluoromethyl)-1H-pyrazole-5-carboxamide], the IC50 is no more than 100 nM.

For the compound `Cc1c(C(C)(F)F)nn(CC2(C)CC(F)(F)CC2C)c1C(=O)Nc1ccnc(C(N)=O)c1` (single isomer, unassigned) [Example 10a, 4-(1-((4,4-difluoro-1,2-dimethylcyclopentyl)methyl)-3-(1,1-difluoroethyl)-4-methyl-1H-pyrazole-5-carboxamido)picolinamide], the IC50 was no more than 100 nM.

For `Cc1nn(CC23CC(CO2)C3)c(C(=O)Nc2cccc(S(N)(=O)=O)c2)c1C(F)(F)F` [Example 33, 1-((2-oxabicyclo [2.1.1]hexan-1-yl)methyl)-3-methyl-N-(3-sulfamoylphenyl)-4-(trifluoromethyl)-1H-pyrazole-5-carboxamide], the IC50 fell in the range of 1000 to 10000 nM.

As to `NC(=O)c1cc(NC(=O)c2c(C(F)(F)F)cnn2CC23CC(C2)C3)ccc1F` [Example 38, 1-(bicyclo[1.1.1]pentan-1-ylmethyl)-N-(3-carbamoyl-4-fluorophenyl)-4-(trifluoromethyl)-1H-pyrazole-5-carboxamide], the IC50 fell in the range of 1000 to 10000 nM.

As for `NC(=O)c1cc(NC(=O)c2c(C(F)(F)F)cnn2CC23CC(CO2)C3)ccc1F` [Example 37, 1-((2-oxabicyclo[2.1.1]hexan-1-yl)methyl)-N-(3-carbamoyl-4-fluorophenyl)-4-(trifluoromethyl)-1H-pyrazole-5-carboxamide], the IC50 is 1000 to 10000 nM.

As to `CS(=O)(=O)n1cc(NC(=O)c2c(C(F)(F)F)cnn2CC23CC(C2)C3)cn1` [Example 47, 1-(bicyclo [1.1.1]pentan-1-ylmethyl)-N-(1-(methylsulfonyl)-1H-pyrazol-4-yl)-4-(trifluoromethyl)-1H-pyrazole-5-carboxamide], the half-maximal inhibitory concentration (IC50) was in the range of 1000 to 10000 nM.

Regarding `Cc1c(C(C)(F)F)nn(CC2(C)CC(F)(F)CC2C)c1C(=O)Nc1ccnc(C(N)=O)c1` (single isomer, unassigned) [Example 10d, 4-(1-((4,4-difluoro-1,2-dimethylcyclopentyl)methyl)-3-(1,1-difluoroethyl)-4-methyl-1H-pyrazole-5-carboxamido)picolinamide], the IC50 was no more than 100 nM.

For `Cc1nn(CC23CC(F)(C2)C3)c(C(=O)Nc2ccnc(C(N)=O)c2)c1C(F)(F)F` [Example 1, 4-(1-((3-fluorobicyclo[1.1.1]pentan-1-yl)methyl)-3-methyl-4-(trifluoromethyl)-1H-pyrazole-5-carboxamido)picolinamide], the IC50 lay in the range of 100 to 1000 nM.

On to `Cc1nn(CC23CCC(C2)C3)c(C(=O)Nc2ccc(F)c(C(N)=O)c2)c1C(F)(F)F` [Example 36, 1-(bicyclo[2.1.1]hexan-1-ylmethyl)-N-(3-carbamoyl-4-fluorophenyl)-3-methyl-4-(trifluoromethyl)-1H-pyrazole-5-carboxamide], for which the IC50 is no more than 100 nM.

One may read the IC50 as the midpoint of a concentration-inhibition curve.

The values above are taken from patent EP4385979A1 (Grünenthal GmbH, priority 2022, dated 2024).
